Assay results from patent publication US9802927B2, “Oxadiazine compounds and methods of use thereof” (Denali Therapeutics, Inc., priority 2015, dated 2017).

system: Aβ42; experiment: In vitro cell screening assay in H4 cells expressing human APP751: Aβ42 by sandwich ELISA; format: cell-based; settings: Homo sapiens, compounds 0.003-10 μM, incubated overnight (16-18 h), sandwich ELISA of supernatant
Summary of the method: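 H4 neuroglioma cells stably expressing wild-type human APP751, switched to Pro293 medium and treated with compounds (0.003-10 μM, 0.33% DMSO) for 16-18 h at 37 °C. Supernatant Aβ42 quantified by sandwich ELISA (C-terminal capture, 4G8-HRP detection, A450); EC50 by sigmoidal fit normalized to DMSO and DAPT controls.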

Going from `COc1nc(C2=NOCC(C3CCS(=O)(=O)CC3)N2)ccc1-n1cnc(C)c1` (single isomer, unassigned; (+)) [Example 177A, (+)-4-(3-(6-methoxy-5-(4-methyl-1H-imidazol-1-yl)pyridin-2-yl)-5,6-dihydro-4H-1,2,4-oxadiazin-5-yl) tetrahydro-2H-thiopyran 1,1-dioxide] to `COc1nc(C2=NOCC(C3CCC(F)(F)CC3)N2)ccc1-n1cnc(C)c1` (single isomer, unassigned; (+)) [Example 139B, (+)-5-(4,4-difluorocyclohexyl)-3-(6-methoxy-5-(4-methyl-1H-imidazol-1-yl)pyridin-2-yl)-5,6-dihydro-4H-1,2,4-oxadiazine], the EC50 falls from over 3000 nM to 201 nM. The second is the more potent here.

In the case of `COc1cn(-c2ccc(C3=NOCC(c4cc5cccc(C)c5o4)N3)nc2OC)cn1` (single isomer, unassigned; (+)) [Example 33, (+)-3-(6-methoxy-5-(4-methoxy-1H-imidazol-1-yl)pyridin-2-yl)-5-(7-methylbenzofuran-2-yl)-5,6-dihydro-4H-1,2,4-oxadiazine], the EC50 is reported as 147 nM.

same assay, conditions: compounds 0.003-10 μM, incubated overnight (16-18 h), sandwich ELISA of supernatant

First: COc1nc(C2=NOCC(CC(C)C)N2)ccc1-n1cnc(C)c1 (single isomer, unassigned; (-)) [Example 154B, (−)-5-isobutyl-3-(6-methoxy-5-(4-methyl-1H-imidazol-1-yl)pyridin-2-yl)-5,6-dihydro-4H-1,2,4-oxadiazine]
Second: COc1nc(C2=NOCC(C3CCC3)N2)ccc1-n1cnc(C)c1 (single isomer, unassigned; (+)) [Example 163A, (+)-5-cyclobutyl-3-(6-methoxy-5-(4-methyl-1H-imidazol-1-yl)pyridin-2-yl)-5,6-dihydro-4H-1,2,4-oxadiazine]
The EC50 of the first is lower: 199 nM for the first, over 3000 nM for the second. The first is the more potent here.

First: COc1nc(C2=NOCC(c3cccc(S(C)(=O)=O)c3)N2)ccc1-n1cnc(C)c1 (single isomer, unassigned; (+)) [Example 214B, (+)-3-(6-methoxy-5-(4-methyl-1H-imidazol-1-yl)pyridin-2-yl)-5-(3-(methylsulfonyl)phenyl)-5,6-dihydro-4H-1,2,4-oxadiazine]
Second: COc1nc(C2=NOCC(c3ccc(Cl)c(C)c3)N2)ccc1-n1cnc(C)c1 (single isomer, unassigned; (-)) [Example 86A, (−)-5-(4-chloro-3-methylphenyl)-3-(6-methoxy-5-(4-methyl-1H-imidazol-1-yl)pyridin-2-yl)-5,6-dihydro-4H-1,2,4-oxadiazine]
The EC50 of the first is 1.7-fold lower: 904 nM for the first, 1550 nM for the second.

First: COc1nc(C2=NOCC(c3ccc(C(F)(F)F)cc3)N2)ccc1-n1cnc(C)c1 (single isomer, unassigned; (+)) [Example 59B, (+)-3-(6-methoxy-5-(4-methyl-1H-imidazol-1-yl)pyridin-2-yl)-5-(4-(trifluoromethyl)phenyl)-5,6-dihydro-4H-1,2,4-oxadiazine]
Second: COc1nc(C2=NOCC(c3ccc(Cl)cc3)N2)ccc1-n1cnc(C)c1 (single isomer, unassigned) [Example 42A, 5-(4-chlorophenyl)-3-(6-methoxy-5-(4-methyl-1H-imidazol-1-yl)pyridin-2-yl)-5,6-dihydro-4H-1,2,4-oxadiazine]
The EC50 of the first is lower: 33.7 nM for the first, over 3000 nM for the second. The first is the more potent here.

Compared with `COc1nc(C2=NOCC(c3cn(C)c4cc(C(F)(F)F)ccc34)N2)ccc1-n1cnc(C)c1` (single isomer, unassigned; (+)) [Example 197A, (+)-3-(6-methoxy-5-(4-methyl-1H-imidazol-1-yl)pyridin-2-yl)-5-(1-methyl-6-(trifluoromethyl)-1H-indol-3-yl)-5,6-dihydro-4H-1,2,4-oxadiazine], `COc1nc(C2=NOCC(c3cn(C)c4cc(Cl)ccc34)N2)ccc1-n1cnc(C)c1` (single isomer, unassigned; (-)) [Example 194B, (−)-5-(6-chloro-1-methyl-1H-indol-3-yl)-3-(6-methoxy-5-(4-methyl-1H-imidazol-1-yl)pyridin-2-yl)-5,6-dihydro-4H-1,2,4-oxadiazine] is 43-fold higher in EC50: 3.4 nM for the first, 147 nM for the second.

First: COc1nc(C2=NOCC(c3cc4ccc(Cl)cc4o3)N2)ccc1-n1cnc(C)c1 (single isomer, unassigned; (+)) [Example 78B, (+)-5-(6-chlorobenzofuran-2-yl)-3-(6-methoxy-5-(4-methyl-1H-imidazol-1-yl)pyridin-2-yl)-5,6-dihydro-4H-1,2,4-oxadiazine]
Second: COc1nc(C2=NOCC(c3ccc(C)c(Cl)c3)N2)ccc1-n1cnc(C)c1 (single isomer, unassigned; (+)) [Example 218B, (+)-5-(3-chloro-4-methylphenyl)-3-(6-methoxy-5-(4-methyl-1H-imidazol-1-yl)pyridin-2-yl)-5,6-dihydro-4H-1,2,4-oxadiazine]
The EC50 of the first is 1.6-fold lower: 8.9 nM for the first, 14.1 nM for the second.

First: CCn1cc(C2CON=C(c3ccc(-n4cnc(C)c4)c(OC)n3)N2)c2cc(Cl)c(F)cc21 (single isomer, unassigned; (+)) [Example 73B, (+)-5-(5-chloro-1-ethyl-6-fluoro-1H-indol-3-yl)-3-(6-methoxy-5-(4-methyl-1H-imidazol-1-yl)pyridin-2-yl)-5,6-dihydro-4H-1,2,4-oxadiazine]
Second: COc1nc(C2=NOCC(c3ccc(Cl)c(C(F)(F)F)c3)N2)ccc1-n1cnc(C)c1 (single isomer, unassigned) [Example 253A, 5-(4-chloro-3-(trifluoromethyl)phenyl)-3-(6-methoxy-5-(4-methyl-1H-imidazol-1-yl)pyridin-2-yl)-5,6-dihydro-4H-1,2,4-oxadiazine]
The EC50 of the first is 170-fold lower: 3.9 nM for the first, 654 nM for the second. The first is the more potent here.

First: COc1nc(C2=NOCC(c3csc4ccccc34)N2)ccc1-n1cnc(C)c1 (single isomer, unassigned; (-)) [Example 68A, (−)-5-(benzo [b]thiophen-3-yl)-3-(6-methoxy-5-(4-methyl-1H-imidazol-1-yl)pyridin-2-yl)-5,6-dihydro-4H-1,2,4-oxadiazine]
Second: COc1nc(C2=NOCC(c3nn(C)c4ccccc34)N2)ccc1-n1cnc(C)c1 (single isomer, unassigned; (+)) [Example 124B, (+)-3-(6-methoxy-5-(4-methyl-1H-imidazol-1-yl)pyridin-2-yl)-5-(1-methyl-1H-indazol-3-yl)-5,6-dihydro-4H-1,2,4-oxadiazine]
The EC50 of the first is 20-fold higher: 1090 nM for the first, 54.8 nM for the second.

Going from `COc1nc(C2=NOCC(c3cccc(C(F)(F)F)c3)N2C)ccc1-n1cnc(C)c1` (stereo not drawn) [Example 213, 3-(6-methoxy-5-(4-methyl-1H-imidazol-1-yl)pyridin-2-yl)-4-methyl-5-(3-(trifluoromethyl)phenyl)-5,6-dihydro-4H-1,2,4-oxadiazine] to `COc1nc(C2=NOCC(c3cc4ccccc4n3C)N2)ccc1-n1cnc(C)c1` (single isomer, unassigned; (+)) [Example 205B, (+)-3-(6-methoxy-5-(4-methyl-1H-imidazol-1-yl)pyridin-2-yl)-5-(1-methyl-1H-indol-2-yl)-5,6-dihydro-4H-1,2,4-oxadiazine], the EC50 falls from 55.7 nM to 27 nM (2.1-fold).

Going from `CCn1cc(C2CON=C(c3ccc(-n4cnc(C)c4)c(OC)n3)N2)c2cc(Cl)c(F)cc21` (single isomer, unassigned; (-)) [Example 73A, (−)-5-(5-chloro-1-ethyl-6-fluoro-1H-indol-3-yl)-3-(6-methoxy-5-(4-methyl-1H-imidazol-1-yl)pyridin-2-yl)-5,6-dihydro-4H-1,2,4-oxadiazine] to `COc1nc(C2=NOCC(c3ccc4c(c3)CCC4)N2)ccc1-n1cnc(C)c1` (single isomer, unassigned; (-)) [Example 248A, (−)-5-(2,3-dihydro-1H-inden-5-yl)-3-(6-methoxy-5-(4-methyl-1H-imidazol-1-yl)pyridin-2-yl)-5,6-dihydro-4H-1,2,4-oxadiazine], the EC50 rises from 54.9 nM to 474 nM (8.6-fold). The first is the more potent here.
